The values that follow come from PubChem BioAssay AID651703 (Broad Institute, 2012).

SMILES strings stand for the structures.

This assay addresses Transforming acidic coiled-coil-containing protein 3 (Homo sapiens) (UniProt Q9Y6A5). As to the kind of experiment: ARNT/TACC3 interaction disruptors, potency, confirmation, biochemical, AlphaScreen, cherry-picked samples (AID 651703).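 Further: TACC3 partner is the GST-tagged E629A mutant dimer; hits lower the signal meaning they disrupt ARNT binding to TACC3.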 As to conditions: AlphaScreen His-ARNT PAS-B / GST-TACC3 binding, luminescence. On the technique in general: Bead proximity is the source of the signal in Alpha formats.
For `O=C(N[C@@H]1CC[C@@H](CCn2cc(-c3ccccn3)nn2)O[C@H]1CO)c1ccncc1`, the AC50 – broadly, the midpoint of the concentration-response curve, whichever way the signal moves – is 16.7 µM.
For the molecule `COc1cc(NS(=O)(=O)c2ccc(Nc3nc(-c4ccccn4)cs3)cc2)nc(OC)n1`, the AC50 is 17.3 µM.
Under `Cc1ccc(C)c(CSc2ccc3nnc(-c4ccccn4)n3n2)c1` stands 23.3 µM.
For the molecule `Oc1ccc(/C=N/Nc2ccc(Cl)nn2)c(O)c1O`, the half-maximal activity concentration (AC50) is 0.702 µM.
The same measure for `O=C(Nc1nc(-c2ccccn2)cs1)C1COc2ccccc2O1` (configuration not stated): 5.46 µM; for `COc1cc(CCNC2=CC(=O)c3ncccc3C2=O)ccc1O`: 34.8 µM; for `Oc1c(CN2CCN(c3ccc(F)cc3)CC2)cc(Cl)c2cccnc12`: 2.5 µM.
Under `O=C(CSc1ccc2nnc(-c3ccccn3)n2n1)Nc1ccc(F)cc1F` stands 35.4 µM; under `Oc1c(Cl)cc(CN2CCOCC2)c2cccnc12`, 1.15 µM.
The same measure for `COc1cc2c(c(OC)c1OC)-c1ccc(O)c(=O)cc1[C@@H](N)CC2`: 29.7 µM.
Turning to `Cc1cccc(C(=O)Nc2nnc(-c3ccncc3)o2)c1`, the half-maximal activity concentration (AC50) is 36.5 µM.
The same measure for `O=S(=O)(N[C@@H]1CC[C@@H](CCn2cc(-c3ccccn3)nn2)O[C@H]1CO)c1cccc(Cl)c1`: 15.3 µM; for `COc1cc(NC(=O)CSc2ccc(-c3ccccn3)nn2)cc(OC)c1`: 1.78 µM.
In the case of `CN(CC(=O)O)Cc1nc2ccccc2[nH]1`, the concentration at half-maximal activity (AC50) is 7.77 µM.
Consider `O=C(NCCCn1ccnc1)c1ccc2nccnc2c1`, for which the AC50 was 67.5 µM.
Under `Brc1ccc(-c2nn3c(-c4ccccn4)nnc3s2)o1` stands 9.12 µM.
The same measure for `CCOc1cccc(/C=N/NC(=O)c2cccnc2)c1O`: 21.6 µM.
As to `Nc1ncnc(Oc2cccc3cccnc23)c1[N+](=O)[O-]`, the concentration at half-maximal activity (AC50) is 11.1 µM.
Under `CCN(CC)c1ccc(/C=N/N=C(N)N)c(O)c1` stands 38.9 µM; under `C(=N\Nc1ccc2nncn2n1)/c1ccccn1`, 14 µM.
Under `COc1ccc(C(=O)Cc2nnc(C)s2)c(OC)c1` stands 67.3 µM.
With `Cn1c(-c2ccccc2)cnc1N`, the AC50 was 37.5 µM.
Turning to `O=C(CN1C(=O)C2CCCCC2C1=O)Nc1nc(-c2ccccn2)cs1` (configuration not stated), the concentration at half-maximal activity (AC50) is 5.15 µM.
The same measure for `O=C(N/N=C/c1ccccc1O)C1SCCCS1`: 22.6 µM; for `Cc1c(NC(=O)CSc2cccc3cccnc23)c(=O)n(-c2ccccc2)n1C`: 3.6 µM.
The same measure for `CCOc1ccc(N(CC(=O)Nc2ccc(OC)cc2OC)S(=O)(=O)c2c(C)[nH]c(=O)[nH]c2=O)cc1`: 27.6 µM.
With `c1ccc(-c2nnc(-c3ccccn3)nc2NCCc2ccccn2)cc1`, the AC50 is below 0.5 µM.
The same measure for `O=C(N[C@H]1CC[C@@H](CCn2cc(-c3ccccn3)nn2)O[C@H]1CO)c1ccccc1`: 12.1 µM.
The same measure for `CC(=O)NC(c1ccc(Cl)cc1Cl)c1ccc2cccnc2c1O` (configuration not stated): 5.14 µM; for `O=C(NCCCn1ccnc1)C(=O)NCC1OCCN1S(=O)(=O)c1ccc2c(c1)OCCO2` (configuration not stated): 13.2 µM; for `CCOc1cc(/C=C2\SC(=N)N(c3nccs3)C2=O)ccc1OCCN1CCOCC1`: 35 µM.
Regarding `Cc1cccc(NC(=O)CSc2cccc3cccnc23)c1C`, the AC50 was 33.7 µM.
The same measure for `O=S(=O)(N[C@@H]1CC[C@@H](CCn2cc(-c3ccccn3)nn2)O[C@H]1CO)c1cccc(F)c1`: 21.5 µM; for `NNc1nnc(-c2ccccc2)c(-c2ccccc2)n1`: 8.66 µM; for `O=C(COc1ccccc1)Nc1nnc(-c2ccco2)o1`: 36.6 µM.
The same measure for `Cc1ccc(C(=O)Nc2cccc(C(=O)N/N=C/c3ccc(O)cc3)c2)cc1`: 32.7 µM.
For the molecule `O=C(NC[C@H]1[C@@H](c2ccccc2)[C@@H](CO)N1Cc1ccccn1)C1CC1`, the AC50 was 48.4 µM.
Under `CNc1nc(-c2ccccn2)nnc1-c1ccccc1` stands below 0.5 µM; under `c1ccc(-c2nnc(-c3ccccn3)nc2N2CCC(N3CCOCC3)CC2)cc1`, below 0.5 µM.
The same measure for `O=C(N/N=C/c1cc(Cl)ccc1O)c1cccnc1`: 7.68 µM; for `CC(C)(C)C1=CC(=Nc2ccccc2N)C=C(C(C)(C)C)C1=O`: 1.47 µM.
For `O=C(CN1C(=O)C2C3C=CC(C3)C2C1=O)Nc1nc(-c2ccccn2)cs1` (configuration not stated), the concentration at half-maximal activity (AC50) was 6.76 µM.
Under `CC(=O)NC(c1ccc2ccccc2c1)c1ccc2cccnc2c1O` (configuration not stated) stands 5.44 µM.
The same measure for `COc1ccc(CCNC(=O)CSc2nnc3ccc(-c4ccccn4)nn23)cc1`: 33.5 µM; for `COc1cccc(/C=N/n2c(-c3n[nH]c4c3CCC4)n[nH]c2=S)c1O`: 28.7 µM.
For the molecule `Cc1ccc(C(=O)Nc2nc(-c3ccccn3)cs2)cc1S(=O)(=O)N1CCOCC1`, the AC50 is 2.37 µM.
Under `O=C(O)CSc1cc(NS(=O)(=O)c2cccc([N+](=O)[O-])c2)c2ccccc2c1O` stands 48.1 µM; under `O=C(N[C@H]1CC[C@@H](CCn2cc(-c3ccccn3)nn2)O[C@H]1CO)c1ccncc1`, 9.53 µM.
Under `Cc1nnc(-c2ccccc2)c(=O)n1/N=C/c1c(O)ccc2ccccc12` stands 49.2 µM; under `COc1cc(-c2nnc(NC(=O)c3ccco3)o2)cc(OC)c1OC`, 66.9 µM.
The same measure for `C/C(=N\NC(=O)C1CCCN(S(=O)(=O)c2ccccc2)C1)c1ccccn1` (configuration not stated): 11.1 µM; for `O=C(Nc1nnc(-c2cccs2)o1)c1ccc(S(=O)(=O)N2CCOCC2)cc1`: 17.1 µM.
Consider `CCN1CCN(C(c2cccnc2)c2cc(Cl)c3cccnc3c2O)CC1` (configuration not stated), for which the AC50 is 4.03 µM.
Consider `C/C=C/c1ccc([C@H]2[C@@H](CO)N(Cc3ccccn3)[C@H]2CNC(=O)CC)cc1`, for which the AC50 was 66.7 µM.
The same measure for `Oc1ccc(C2=Nn3c(nnc3-c3ccco3)SC2)cc1O`: 6.22 µM.
In the case of `CCC(=O)NC(C)c1cc(Cl)c2cccnc2c1O` (configuration not stated), the half-maximal activity concentration (AC50) is 4.72 µM.
Turning to `Oc1cc(Nc2ccncc2)cc2cccnc12`, the AC50 was 0.676 µM.
Under `COc1cccc(/C=N/NC(=O)C(=O)N2CCCCCC2)c1O` stands 18.8 µM; under `O=C(CNCc1ccccn1)Nc1cc(C(F)(F)F)ccc1N1CCOCC1`, 17.4 µM.
Under `CN(Cc1ccccc1)CC(O)COc1ccc(CNCc2nccn2C)cc1` (configuration not stated) stands 47.9 µM; under `Oc1cc(-c2ccncc2)cc2cccnc12`, 0.771 µM.
The same measure for `CC(=O)OC[C@H]1O[C@@H](Sc2cccc3cccnc23)[C@H](OC(C)=O)[C@@H](OC(C)=O)[C@H]1OC(C)=O`: 11.5 µM.
Turning to `c1ccc(-c2nnc(-c3ccccn3)nc2NCCN2CCOCC2)cc1`, the concentration at half-maximal activity (AC50) was 0.593 µM.
On to `CCOC(=O)c1c(C)[nH]c(N=Nc2cccc(C)c2)c1C`, for which the concentration at half-maximal activity (AC50) is 17.8 µM.
The same measure for `O=C(COc1ccccc1F)Nc1nc(-c2ccccn2)cs1`: 8.38 µM.
`COc1cccc(C(=O)Nc2nnc(-c3cccs3)o2)c1`: the half-maximal activity concentration (AC50) is 21.4 µM.
The same measure for `O=C(CSc1nnc(CNC(=O)c2ccc(F)cc2)o1)Nc1nccs1`: 61.9 µM; for `CN1CCC(=O)N(CCOc2ccccc2)CC1`: 4.44 µM.
Under `c1ccc(CNc2nc(-c3ccccn3)nc3ccccc23)cc1` stands 11.4 µM.
Under `N[C@@H]1CC[C@@H](CCn2cc(-c3ccccn3)nn2)O[C@H]1CO` stands 0.565 µM.
On to `O=C(N[C@@H]1CC[C@H](CCn2cc(-c3ccccn3)nn2)O[C@H]1CO)c1cccnc1`, for which the AC50 was 12.2 µM.
The same measure for `O=C(CSc1ccc2nnc(-c3ccccn3)n2n1)Nc1ccccc1F`: 28.6 µM.
